According to patent publication US11504425B2, “Amphiphilic oligodeoxynucleotide conjugates as adjuvant enhancers” (WAYNE STATE UNIVERSITY, priority 2019, dated 2022):

Target: T1, human TLR8 (hTLR8) (Homo sapiens, UniProt Q9NR97)
T1 construct: host or cells: HEK-Blue-hTLR8 (HEK293)
T1 sequence (Q9NR97 27-1041): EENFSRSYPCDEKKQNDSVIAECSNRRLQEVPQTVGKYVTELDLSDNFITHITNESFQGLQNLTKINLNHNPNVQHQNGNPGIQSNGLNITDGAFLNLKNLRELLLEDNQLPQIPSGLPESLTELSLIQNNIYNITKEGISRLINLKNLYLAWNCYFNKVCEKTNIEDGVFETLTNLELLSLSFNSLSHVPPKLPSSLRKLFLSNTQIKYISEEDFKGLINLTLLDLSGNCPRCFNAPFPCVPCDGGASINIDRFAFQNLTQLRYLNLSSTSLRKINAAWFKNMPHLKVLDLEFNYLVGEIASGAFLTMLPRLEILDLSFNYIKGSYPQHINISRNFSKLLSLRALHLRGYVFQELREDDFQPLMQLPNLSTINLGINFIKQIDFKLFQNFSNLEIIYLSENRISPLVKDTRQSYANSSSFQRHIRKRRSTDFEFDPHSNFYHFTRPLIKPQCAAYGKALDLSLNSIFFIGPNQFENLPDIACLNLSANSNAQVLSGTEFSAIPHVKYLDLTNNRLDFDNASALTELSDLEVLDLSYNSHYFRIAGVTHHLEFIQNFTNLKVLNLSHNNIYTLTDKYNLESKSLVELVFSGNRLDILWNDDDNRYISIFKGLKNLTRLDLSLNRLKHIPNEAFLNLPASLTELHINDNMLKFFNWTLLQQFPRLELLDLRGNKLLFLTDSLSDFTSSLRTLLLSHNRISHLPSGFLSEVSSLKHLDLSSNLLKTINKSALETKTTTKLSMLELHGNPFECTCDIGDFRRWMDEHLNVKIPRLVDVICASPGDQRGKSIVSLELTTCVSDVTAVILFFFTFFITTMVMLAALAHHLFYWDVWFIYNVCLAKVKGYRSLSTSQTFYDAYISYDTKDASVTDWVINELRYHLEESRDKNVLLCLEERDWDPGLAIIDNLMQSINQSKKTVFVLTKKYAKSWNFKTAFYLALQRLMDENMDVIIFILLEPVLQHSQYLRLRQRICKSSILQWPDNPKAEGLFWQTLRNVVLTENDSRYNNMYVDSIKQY
Assay: HEK hTLR8 reporter cells NF-κB/SEAP
Format: cell-based
Settings: 1 μg/ml or indicated concentrations TLR8-506 + 1 μM ODN, 24 h
Experimental: HEK-Blue™-mTLR7, mTLR8, hTLR7, hTLR8, and RAW-Blue™ cells were purchased from InvivoGen and were used to evaluate bioactivities of lipo ODNs and TLR 7/8 ligands in vitro. All these cell lines were cultured with DMEM supplemented with 10% FBS, 1% P/S and 100 μg/mL Normocin at 37° C. with 5% CO2. […] After incubating for 24 h, SEAP levels were quantified by developing supernatants with QuantiBlue™ substrate for 1 h and reading absorption at 620 nm, following manufacturer's instructions.
HEK293 cells transfected with human TLR7 or 8 were used. The cells were stimulated with IMQ in the presence of several inhibitory oligonucleotides reported in the literature. […] In contrast, all the unmodified ODNs maintained their inhibitory function, reducing the NF-κB secretion to basal levels (FIG. 8A). We then plotted the IMQ dose response curve in human TLR-7 transfected HEK293 cells.

5′-TTTTTTTTTTTTTTTTTTTT-3′ [T20]
TLR8-506 stimulation of hTLR8 cells in the presence of the ODN: enhanced the stimulation of TLR8-506
